# Test results taken from US4434175A, “Nonsteroidal compounds as anti-inflammatory and analgesic agents” (Merck & Co., Inc., priority 1982, dated 1984).
# Columns and labels:
# [1] = test system: edema induced by carragenin in rat's right hind paw; test: rat foot edema assay (carragenin-induced, C.F.E.); type: in vivo, rat (male, Sprague Dawley)
# Method: The rat foot edema assay, by which anti-inflammatory activity is determined, is based on the ability of the compounds of Formula I to inhibit the edema induced by injection of an inflammatory (phlogistic) agent into the tissue of a rat's foot. Groups of six male rats (Sprague Dawley strain, 150±30 g each) are given orally the compounds to be tested one hour before 0.1 ml of 1% suspension of carragenin in methocel (0.5%) is injected into the plantar surface of the rat's right hind paw. Immediately and again three hours later, the foot volume is measured and recorded. The difference between the […] and final volumes is a measurement of the edema produced. For comparative purposes the activity of the compound to be tested is measured against that produced by the known anti-inflammatory agent, e.g. Zomepirac. The activity measured is also corrected by the swelling, if any, produced by the "control" rats which receive only the methocel solution.
# [2] = test system: gastric mucosa; test: Gastric Hemorrhage Lesion Formation Assay (GHLF) / gastric irritation; type: in vivo, rat (Sprague-Dawley, male); conditions: for Ave. No. of lesions per Animal / Animal with Lesion: oral, fasted, 4 h; for Animal with Lesion: animals with at least one lesion/group
# Method: In other words, the novel compounds of the present invention are less toxic in terms of gastric irritation. The GHLF test is conducted according to the following procedure:
# Rats (Sprague-Dawley, Males, 120-180 gm) were fasted overnight and dosed orally with drug suspended in 0.5% methylcellulose. The drug concentration was adjusted so that each animal received 1.0 ml/100 gm body weight. Four hours later the animals were killed by asphixiation in carbon dioxide, the stomachs removed, cut open and everted. The mucosal lining was washed and examined under 3X magnification. The lesions are indentified as perforations of the gastric mucosa many of which perforate right through the wall of the stomach.
# The results are expressed in two ways, the average number of lesions per stomach, and the number of animals in the group showing at least one lesion.
# [3] = Rattus norvegicus, oral, one hour before carragenin, foot volume 3 h later
SMILES,"inhibition in vivo at 10 mg/kg [1, 3] [%]","inhibition in vivo at 30 mg/kg [1, 3] [%]","inhibition in vivo at 3 mg/kg [1, 3] [%]",Ave. No. of lesions per Animal ([2]; 10 mg/kg),Animal with Lesion ([2]; 10 mg/kg),Ave. No. of lesions per Animal ([2]; 30 mg/kg),Animal with Lesion ([2]; 30 mg/kg),Ave. No. of lesions per Animal ([2]; 90 mg/kg),Animal with Lesion ([2]; 90 mg/kg),further results
Cc1cc(CC(=O)O)n(C)c1C(=O)c1ccc(Cl)n1C,30,41,–,–,–,–,–,–,–,–
"Cc1cc(CC(=O)O)n(C)c1C(=O)c1ccc(Cl)cc1 [Zomepirac, reference compound]",–,–,–,–,–,–,–,–,–,Ave. No. of lesions per Animal ([2]; 3 mg/kg): 0.5; Animal with Lesion ([2]; 3 mg/kg): 4/6; Ave. No. of lesions per Animal ([2]; 6 mg/kg): 1.4; Animal with Lesion ([2]; 6 mg/kg): 3/6; Ave. No. of lesions per Animal ([2]; 9 mg/kg): 1.4; Animal with Lesion ([2]; 9 mg/kg): 6/6
C=C(Cl)COc1cc(CC(=O)O)n(C)c1C(=O)c1ccc(Cl)cc1 [4-ClC6 H5; drawing 13; CH3],–,–,30,–,–,–,–,–,–,"inhibition in vivo at 20 mg/kg [1, 3]: 32%"
Cc1cc(CC(=O)O)n(C)c1C(=O)c1cccnc1 [drawing 19],47,33,34,–,–,–,–,–,–,–
"COc1cc(CC(=O)O)n(C)c1C(=O)c1ccc(C)cc1 [4-CH3C6 H5; OCH3; CH3, 5-(p-methylbenzoyl)-4-methoxy-1-methylpyrrole-2-acetic acid]",–,–,–,0,0/6,0,0/6,0,0/6,"inhibition in vivo at 5 mg/kg ([1]; Rattus norvegicus, 5 mg/kg, oral, one hour before carragenin, foot volume 3 h later): 38%; inhibition in vivo at 20 mg/kg [1, 3]: 38%"
CSc1cc(C(=O)c2c(C)cc(CC(=O)O)n2C)n(C)c1,33,53,–,–,–,–,–,–,–,–
"COc1cc(CC(=O)O)n(C)c1C(=O)c1ccc(Cl)cc1 [4-ClC6 H5; CH3 O; CH3, 5-(p-chlorobenzoyl)-4-methoxy-1-methylpyrrole-2-acetic acid]",51,70,48,0,0/5,0,0/5,2,3/5,"inhibition in vivo at 20 mg/kg [1, 3]: 60%"
Cc1cc(CC(=O)O)n(C)c1C(=O)c1cccn1C,–,26,–,–,–,–,–,–,–,–
COc1cc(CC(=O)O)n(C)c1C(=O)c1ccc(Cl)n1C,35,41,30,–,–,–,–,–,–,–
"COc1cc(CC(=O)O)n(C)c1C(=O)c1ccc([S+](C)[O-])cc1 (stereo not shown) [4-CH3 SOC6 H5; CH3 O; CH3, 4-methoxy-5-(p-methylsulfinylbenzoyl)-1-methylpyrrole-2-acetic acid]",29,23,–,–,–,–,–,–,–,–
"COc1cc(CC(=O)O)n(C)c1C(=O)c1ccc(C(F)(F)F)cc1 [4-CF3C6 H5; OCH3; CH3, 5-(p-trifluoromethylbenzoyl)-4-methoxy-1-methylpyrrole-2-acetic acid]",48,–,24,0,0/6,0,0/6,0,0/6,"inhibition in vivo at 20 mg/kg [1, 3]: 57%; Ave. No. of lesions per Animal ([2]; 150 mg/kg): 1; Animal with Lesion ([2]; 150 mg/kg): 1/6"
Cc1cc(CC(=O)O)n(C)c1C(=O)c1cccnc1 [drawing 23],–,–,–,–,–,–,–,0,0/6,–
CSc1ccc(C(=O)c2c(C)cc(CC(=O)O)n2C)n1C [drawing 18],34,45,–,–,–,–,–,–,–,–
"CSc1ccc(C(=O)c2c(C)cc(CC(=O)OCCNC(C)=O)n2C)n1C [Acetamidoethyl 1,4-dimethyl-5-(1-methyl-5-methylthiopyrrol-2-oyl)pyrrole-2-acetate]",13,21,–,0,0/6,0,0/6,0.5,2/6,"activity in rat foot edema assay ([1]; footnote to edema table): also active; activity, footnote to GHLF table ([2]; footnote to GHLF table): also active"
"CCOc1cc(CC(=O)O)n(C)c1C(=O)c1ccc(Cl)cc1 [4-ClC6 H5; OC2 H5; CH3, 4-ethoxy-5-(p-chlorobenzoyl)-1-methylpyrrole-2-acetic acid]",–,–,–,–,–,–,–,–,–,"inhibition in vivo at 20 mg/kg [1, 3]: 33%"
"COc1cc(CC(=O)O)n(C)c1C(=O)c1ccc(F)cc1F [2,4-F2C6 H5; OCH3; CH3, 5-(o-p-difluorobenzoyl)-4-methoxy-1-methylpyrrole-2-acetic acid]",35,38,29,–,–,–,–,–,–,–
CSc1ccc(C(=O)c2c(C)cc(CC(=O)O)n2C)n1C [drawing 24],–,–,–,0,0/6,0,0/6,–,–,Ave. No. of lesions per Animal ([2]; 60 mg/kg): 1.5; Animal with Lesion ([2]; 60 mg/kg): 4/6
"COc1cc(CC(=O)O)n(C)c1C(=O)c1ccc(SC)cc1 [4-CH3 SC6 H5; CH3 O; CH3, 5-(p-methylthiobenzoyl)-4-methoxy-1-methylpyrrole-2-acetic acid]",–,–,45,0.5,3/6,0.8,2/6,–,–,"inhibition in vivo at 15 mg/kg ([1]; Rattus norvegicus, 15 mg/kg, oral, one hour before carragenin, foot volume 3 h later): 64%"
Cc1cc(CC(=O)O)n(C)c1C(=O)c1ccccn1,–,–,–,–,–,–,–,0,0/6,–
